Source: paper PMC11420776 (RSC Advances, 2024)

Columns and labels:
[1] = test system: EKVX (NSC lung cancer); test: NCI 60-cell one-dose antiproliferative screen; assay type: cell-based, human; details: one dose 10 μM
[2] = test system: OVCAR-4 (ovarian cancer); test: NCI 60-cell one-dose antiproliferative screen; assay type: cell-based, human; details: one dose 10 μM
[3] = test system: SK-OV-3 (ovarian cancer); test: NCI 60-cell one-dose antiproliferative screen; assay type: cell-based, human; details: one dose 10 μM
[4] = test system: T-47D (breast cancer); test: NCI 60-cell one-dose antiproliferative screen; assay type: cell-based, human; details: one dose 10 μM
[5] = test system: UACC-62 (melanoma); test: NCI 60-cell one-dose antiproliferative screen; assay type: cell-based, human; details: one dose 10 μM
[6] = test system: MDA-MB-231/ATCC (breast cancer); test: NCI 60-cell one-dose antiproliferative screen; assay type: cell-based, human; details: one dose 10 μM
[7] = test system: PC-3 (prostate cancer); test: NCI 60-cell one-dose antiproliferative screen; assay type: cell-based, human; details: one dose 10 μM
[8] = test system: HT29 (colon cancer); test: NCI 60-cell one-dose antiproliferative screen; assay type: cell-based, human; details: one dose 10 μM
[9] = test system: MALME-3M (melanoma); test: NCI 60-cell one-dose antiproliferative screen; assay type: cell-based, human; details: one dose 10 μM
[10] = test system: UO-31 (renal cancer); test: NCI 60-cell one-dose antiproliferative screen; assay type: cell-based, human; details: one dose 10 μM
[11] = test system: RPMI-8226 (leukemia); test: NCI 60-cell one-dose antiproliferative screen; assay type: cell-based, human; details: one dose 10 μM
[12] = test system: HOP-62 (NSC lung cancer); test: NCI 60-cell one-dose antiproliferative screen; assay type: cell-based, human; details: one dose 10 μM
[13] = test system: HCT-116 (colon cancer); test: NCI 60-cell one-dose antiproliferative screen; assay type: cell-based, human; details: one dose 10 μM
[14] = test system: LOX IMIV (melanoma); test: NCI 60-cell one-dose antiproliferative screen; assay type: cell-based, human; details: one dose 10 μM
[15] = test system: CCRF-CEM (leukemia); test: NCI 60-cell one-dose antiproliferative screen; assay type: cell-based, human; details: one dose 10 μM
[16] = test system: HCT-15 (colon cancer); test: NCI 60-cell one-dose antiproliferative screen; assay type: cell-based, human; details: one dose 10 μM
[17] = test system: NCI-H522 (NSC lung cancer); test: NCI 60-cell one-dose antiproliferative screen; assay type: cell-based, human; details: one dose 10 μM
[18] = test system: A498 (renal cancer); test: NCI 60-cell one-dose antiproliferative screen; assay type: cell-based, human; details: one dose 10 μM
[19] = test system: RXF 393 (renal cancer); test: NCI 60-cell one-dose antiproliferative screen; assay type: cell-based, human; details: one dose 10 μM
[20] = test system: OVCAR-5 (ovarian cancer); test: NCI 60-cell one-dose antiproliferative screen; assay type: cell-based, human; details: one dose 10 μM
[21] = test system: 786-0 (renal cancer); test: NCI 60-cell one-dose antiproliferative screen; assay type: cell-based, human; details: one dose 10 μM
[22] = test system: CAKI-1 (renal cancer); test: NCI 60-cell one-dose antiproliferative screen; assay type: cell-based, human; details: one dose 10 μM
[23] = test system: M14 (melanoma); test: NCI 60-cell one-dose antiproliferative screen; assay type: cell-based, human; details: one dose 10 μM
[24] = test system: SF-268 (CNS cancer); test: NCI 60-cell one-dose antiproliferative screen; assay type: cell-based, human; details: one dose 10 μM
[25] = test system: HS 578T (breast cancer); test: NCI 60-cell one-dose antiproliferative screen; assay type: cell-based, human; details: one dose 10 μM
[26] = test system: SNB-75 (CNS cancer); test: NCI 60-cell one-dose antiproliferative screen; assay type: cell-based, human; details: one dose 10 μM
[27] = test system: NCI-H460 (NSC lung cancer); test: NCI 60-cell one-dose antiproliferative screen; assay type: cell-based, human; details: one dose 10 μM
[28] = test system: SF-295 (CNS cancer); test: NCI 60-cell one-dose antiproliferative screen; assay type: cell-based, human; details: one dose 10 μM
[29] = test system: 60 human tumor cell lines; test: NCI 60-cell one-dose antiproliferative screen, whole panel; assay type: cell-based; details: Homo sapiens, 60 cell, read-out: Mean inhibition (mean GI%)
[30] = test system: MDA-MB-435 (melanoma); test: NCI 60-cell one-dose antiproliferative screen; assay type: cell-based, human; details: one dose 10 μM
[31] = test system: SN12C (renal cancer); test: NCI 60-cell one-dose antiproliferative screen; assay type: cell-based, human; details: one dose 10 μM
[32] = test system: SW-620 (colon cancer); test: NCI 60-cell one-dose antiproliferative screen; assay type: cell-based, human; details: one dose 10 μM
[33] = test system: HCC-2998 (colon cancer); test: NCI 60-cell one-dose antiproliferative screen; assay type: cell-based, human; details: one dose 10 μM
[34] = test system: NCI/ADR-RES (ovarian cancer); test: NCI 60-cell one-dose antiproliferative screen; assay type: cell-based, human; details: one dose 10 μM
[35] = test system: IGROV1 (ovarian cancer); test: NCI 60-cell one-dose antiproliferative screen; assay type: cell-based, human; details: one dose 10 μM
[36] = test system: DU-145 (prostate cancer); test: NCI 60-cell one-dose antiproliferative screen; assay type: cell-based, human; details: one dose 10 μM
[37] = test system: NCI-H23 (NSC lung cancer); test: NCI 60-cell one-dose antiproliferative screen; assay type: cell-based, human; details: one dose 10 μM
[38] = test system: NCI-H322M (NSC lung cancer); test: NCI 60-cell one-dose antiproliferative screen; assay type: cell-based, human; details: one dose 10 μM
[39] = test system: SK-MEL-2 (melanoma); test: NCI 60-cell one-dose antiproliferative screen; assay type: cell-based, human; details: one dose 10 μM
[40] = test system: OVCAR-8 (ovarian cancer); test: NCI 60-cell one-dose antiproliferative screen; assay type: cell-based, human; details: one dose 10 μM
[41] = test system: ACHN (renal cancer); test: NCI 60-cell one-dose antiproliferative screen; assay type: cell-based, human; details: one dose 10 μM
[42] = test system: SF-539 (CNS cancer); test: NCI 60-cell one-dose antiproliferative screen; assay type: cell-based, human; details: one dose 10 μM
[43] = test system: COLO-205 (colon cancer); test: NCI 60-cell one-dose antiproliferative screen; assay type: cell-based, human; details: one dose 10 μM
[44] = test system: TK-10 (renal cancer); test: NCI 60-cell one-dose antiproliferative screen; assay type: cell-based, human; details: one dose 10 μM
[45] = test system: U251 (CNS cancer); test: NCI 60-cell one-dose antiproliferative screen; assay type: cell-based, human; details: one dose 10 μM
[46] = test system: SK-MEL-28 (melanoma); test: NCI 60-cell one-dose antiproliferative screen; assay type: cell-based, human; details: one dose 10 μM
[47] = test system: HOP-92 (NSC lung cancer); test: NCI 60-cell one-dose antiproliferative screen; assay type: cell-based, human; details: one dose 10 μM
[48] = test system: NCI-H226 (NSC lung cancer); test: NCI 60-cell one-dose antiproliferative screen; assay type: cell-based, human; details: one dose 10 μM
[49] = test system: OVCAR-3 (ovarian cancer); test: NCI 60-cell one-dose antiproliferative screen; assay type: cell-based, human; details: one dose 10 μM
[50] = test system: UACC-257 (melanoma); test: NCI 60-cell one-dose antiproliferative screen; assay type: cell-based, human; details: one dose 10 μM
[51] = test system: A549/ATCC (NSC lung cancer); test: NCI 60-cell one-dose antiproliferative screen; assay type: cell-based, human; details: one dose 10 μM
[52] = test system: MCF7 (breast cancer); test: NCI 60-cell one-dose antiproliferative screen; assay type: cell-based, human; details: one dose 10 μM
[53] = test system: MDA-MB-468 (breast cancer); test: NCI 60-cell one-dose antiproliferative screen; assay type: cell-based, human; details: one dose 10 μM
[54] = test system: KM12 (colon cancer); test: NCI 60-cell one-dose antiproliferative screen; assay type: cell-based, human; details: one dose 10 μM
[55] = test system: SNB-19 (CNS cancer); test: NCI 60-cell one-dose antiproliferative screen; assay type: cell-based, human; details: one dose 10 μM

`O=[N+]([O-])c1ccc(C=NNc2ccc3nnc(-c4ccccc4)n3n2)cc1` [Compound 4b, 6-(2-(4-Nitrobenzylidene)hydrazinyl)-3-phenyl-[1,2,4]triazolo[4,3-b]pyridazine] was tested, and the GI% [1] was “— (— GI% is below 15%)”, the GI% [2] was “— (— GI% is below 15%)” and the GI% [3] was “— (— GI% is below 15%)”. For the same molecule, the GI% [4] was “— (— GI% is below 15%)”, the GI% [5] was “— (— GI% is below 15%)” and the GI% [6] was “— (— GI% is below 15%)”. The GI% [7] was “— (— GI% is below 15%)”, the GI% [8] was “— (— GI% is below 15%)” and the GI% [9] was “— (— GI% is below 15%)”. The GI% [10] was “— (— GI% is below 15%)”, the GI% [11] was “— (— GI% is below 15%)” and the GI% [12] was “— (— GI% is below 15%)”. The GI% [13] was “— (— GI% is below 15%)”, the GI% [14] was “— (— GI% is below 15%)” and the GI% [15] was “— (— GI% is below 15%)”. The GI% [16] was “— (— GI% is below 15%)”, the GI% [17] was “— (— GI% is below 15%)” and the GI% [18] was “— (— GI% is below 15%)”. For the same molecule, the GI% [19] was “— (— GI% is below 15%)”, the GI% [20] was “— (— GI% is below 15%)” and the GI% [21] was “— (— GI% is below 15%)”. The GI% [22] was “— (— GI% is below 15%)”, the GI% [23] was “— (— GI% is below 15%)” and the GI% [24] was “— (— GI% is below 15%)”. For the same molecule, the GI% [25] was “— (— GI% is below 15%)”, the GI% [26] was “— (— GI% is below 15%)” and the GI% [27] was “— (— GI% is below 15%)”. For the same molecule, the GI% [28] was “— (— GI% is below 15%)”, the inhibition at 10 µM [29] was less than 0% and the GI% [30] was “— (— GI% is below 15%)”. For the same molecule, the GI% [31] was “— (— GI% is below 15%)”, the GI% [32] was “— (— GI% is below 15%)” and the GI% [33] was “— (— GI% is below 15%)”. For the same molecule, the GI% [34] was “— (— GI% is below 15%)”, the GI% [35] was “— (— GI% is below 15%)” and the GI% [36] was “— (— GI% is below 15%)”. For the same molecule, the GI% [37] was “— (— GI% is below 15%)”, the GI% [38] was “— (— GI% is below 15%)” and the GI% [39] was “— (— GI% is below 15%)”. For the same molecule, the GI% [40] was “— (— GI% is below 15%)”, the GI% [41] was “— (— GI% is below 15%)” and the GI% [42] was “— (— GI% is below 15%)”. For the same molecule, the GI% [43] was “— (— GI% is below 15%)”, the GI% [44] was “— (— GI% is below 15%)” and the GI% [45] was “— (— GI% is below 15%)”. The GI% [46] was “— (— GI% is below 15%)”, the GI% [47] was “— (— GI% is below 15%)” and the GI% [48] was “— (— GI% is below 15%)”. For the same molecule, the GI% [49] was “— (— GI% is below 15%)”, the GI% [50] was “— (— GI% is below 15%)” and the GI% [51] was “— (— GI% is below 15%)”. The GI% [52] was “— (— GI% is below 15%)”, the GI% [53] was “— (— GI% is below 15%)” and the GI% [54] was “— (— GI% is below 15%)”. The GI% [55] was “— (— GI% is below 15%)”.
